In patent US20150283093A1, “NANOENCAPSULATION OF CURCUMINOID METABOLITES - PROCESS, COMPOSITION AND APPLICATIONS THEREOF” (priority 2014, published 2015):

Assay: Superoxide radical scavenging activity (alkaline DMSO / NBT method)
Description: The scavenging activity towards the superoxide radical (O2^−) was measured as the inhibition of superoxide radical (O2^−) generation. The method was performed by using alkaline DMSO method. Potassium superoxide and dry DMSO were allowed to stand in contact for 24 h and the solution was filtered immediately before use. […] Ascorbic acid was used as standard. The experiment was repeated in triplicate and the percentage scavenging was calculated by using the formula:
Inhibition (%)=[(Control−Test)/Control]×100

Cc1c(C)c2c(c(C)c1O)CCC(C)(C(=O)O)O2 (centres unmarked) [TROLOX]
scavenging of superoxide radical (O2−), concentration dependence: concentration dependant scavenging | scavenging potential of superoxide radical (O2−) (at 100 μM concentration): 47.80%
